Patent US20260224716A1, “PTH ANALOGS FOR THE TREATMENT OF HYPOPARATHYROIDISM” (priority 2020, published 2026)

What was measured:
[1] = Cleavage half-life / conversion of PTH prodrugs in PBS pH 7.4, 37° C. by LC-MS; assay type: physicochemical; conditions: for half-life: PBS buffer, dipeptide cleavage from PTH prodrug, PBS pH 7.4, 37° C., read-out: Half life (converted)
Protocol: The resulting solution was incubated at 37° C. Aliquots were taken at designed time points and analyzed by LC-MS. […] Flow rate of 1 mL/min and a gradient of 10%-80% acetonitrile in water, with 0.1% trifluoroacetic acid over 10 min. […] The concentration of prodrug and drug were determined by their relative peak areas. The […] dissociation rate constant of the prodrug was determined by plotting the logarithm in the concentration of the prodrug at various time points.

PTH1 receptor = target: T1, PTH1 receptor (Homo sapiens, UniProt Q03431); test: Luciferase-based reporter gene assay for cAMP detection (HEK293 cells); assay type: cell-based
T1 construct: expressed in transfected cells; host or cells: HEK293
T1 sequence (Q03431 27-593): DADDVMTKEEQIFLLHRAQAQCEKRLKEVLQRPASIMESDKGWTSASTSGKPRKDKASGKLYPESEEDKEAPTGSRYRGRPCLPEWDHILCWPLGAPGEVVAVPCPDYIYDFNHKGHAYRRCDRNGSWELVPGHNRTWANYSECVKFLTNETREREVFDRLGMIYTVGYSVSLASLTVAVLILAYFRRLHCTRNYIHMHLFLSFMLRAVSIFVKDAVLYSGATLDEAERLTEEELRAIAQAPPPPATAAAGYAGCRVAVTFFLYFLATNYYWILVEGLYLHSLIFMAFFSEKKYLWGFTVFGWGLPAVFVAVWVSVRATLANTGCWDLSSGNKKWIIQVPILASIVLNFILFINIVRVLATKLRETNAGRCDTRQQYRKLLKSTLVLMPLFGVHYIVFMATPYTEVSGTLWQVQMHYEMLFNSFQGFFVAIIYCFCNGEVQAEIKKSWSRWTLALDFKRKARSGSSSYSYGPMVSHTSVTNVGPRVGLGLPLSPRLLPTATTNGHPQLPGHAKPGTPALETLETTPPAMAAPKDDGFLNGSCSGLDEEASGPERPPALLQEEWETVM
Protocol: At the end of the incubation, 50 μL of Steady-Lite Plus (PerkinElmer, Waltham, MA) were added to each well. The plate was shaken briefly, incubated four minutes and light output was measured on an EnSpire Alpha Multi-mode Plate Reader (PerkinElmer, Waltham, MA).

| SMILES | half-life [1] | Half life, fold faster than Sar (vs SEQ ID NO: 52) ([1]; comparator SEQ ID NO: 52) | other results |
| --- | --- | --- | --- |
| CC[C@H](C)[C@H](NC(=O)[C@H](CCC(=O)O)NC(=O)[C@H](CO)NC(=O)[C@@H](NC(=O)[C@H](CO)NC(=O)CN(C(=O)[C@@H](N)CCCCNC(=O)CC[C@H](NC(=O)CCCCCCCCCCCCCCCCC(=O)O)C(=O)O)C(C)C)C(C)C)C(=O)N[C@@H](CCC(N)=O)C(=O)N[C@@H](CC(C)C)C(=O)N[C@@H](CCSC)C(=O)N[C@@H](Cc1c[nH]cn1)C(=O)N[C@@H](CC(N)=O)C(=O)N[C@@H](CC(C)C)C(=O)NCC(=O)N[C@@H](CCCCN)C(=O)N[C@@H](Cc1c[nH]cn1)C(=O)N[C@@H](CC(C)C)C(=O)N[C@@H](CC(N)=O)C(=O)N[C@@H](CO)C(=O)N[C@@H](CCSC)C(=O)N[C@@H](CCC(=O)O)C(=O)N[C@@H](CCCNC(=N)N)C(=O)N[C@H](C(=O)N[C@@H](CCC(=O)O)C(=O)N[C@@H](Cc1c[nH]c2ccccc12)C(=O)N[C@@H](CC(C)C)C(=O)N[C@@H](CCCNC(=N)N)C(=O)N[C@@H](CCCCN)C(=O)N[C@@H](CCCCN)C(=O)N[C@@H](CC(C)C)C(=O)N[C@@H](CCC(N)=O)C(=O)N[C@@H](CC(=O)O)C(=O)N[C@H](C(=O)N[C@@H](Cc1c[nH]cn1)C(=O)N[C@@H](CC(N)=O)C(=O)N[C@@H](Cc1ccccc1)C(=O)O)C(C)C)C(C)C [SEQ ID NO: 48] | 67 h | 1.9 faster than Sar | Half life, fold slower than dK (vs SEQ ID NO: 46) ([1]; comparator SEQ ID NO: 46): 1.4 slower than dK |
| CC[C@H](C)[C@H](NC(=O)[C@H](CCC(=O)O)NC(=O)[C@H](CO)NC(=O)[C@@H](NC(=O)[C@H](CO)NC(=O)CN(C)C(=O)[C@@H](N)CCCCNC(=O)CC[C@H](NC(=O)CCCCCCCCCCCCCCCCC(=O)O)C(=O)O)C(C)C)C(=O)N[C@@H](CCC(N)=O)C(=O)N[C@@H](CC(C)C)C(=O)N[C@@H](CCSC)C(=O)N[C@@H](Cc1c[nH]cn1)C(=O)N[C@@H](CC(N)=O)C(=O)N[C@@H](CC(C)C)C(=O)NCC(=O)N[C@@H](CCCCN)C(=O)N[C@@H](Cc1c[nH]cn1)C(=O)N[C@@H](CC(C)C)C(=O)N[C@@H](CC(N)=O)C(=O)N[C@@H](CO)C(=O)N[C@@H](CCSC)C(=O)N[C@@H](CCC(=O)O)C(=O)N[C@@H](CCCNC(=N)N)C(=O)N[C@H](C(=O)N[C@@H](CCC(=O)O)C(=O)N[C@@H](Cc1c[nH]c2ccccc12)C(=O)N[C@@H](CC(C)C)C(=O)N[C@@H](CCCNC(=N)N)C(=O)N[C@@H](CCCCN)C(=O)N[C@@H](CCCCN)C(=O)N[C@@H](CC(C)C)C(=O)N[C@@H](CCC(N)=O)C(=O)N[C@@H](CC(=O)O)C(=O)N[C@H](C(=O)N[C@@H](Cc1c[nH]cn1)C(=O)N[C@@H](CC(N)=O)C(=O)N[C@@H](Cc1ccccc1)C(=O)O)C(C)C)C(C)C [SEQ ID NO: 52] | 130 h | – | Half life, fold slower than dK (vs SEQ ID NO: 45) ([1]; comparator SEQ ID NO: 45): 1.4 slower than dK |
| CC[C@H](C)[C@H](NC(=O)[C@H](CCC(=O)O)NC(=O)[C@H](CO)NC(=O)[C@@H](NC(=O)[C@H](CO)NC(=O)[C@H](C)N(C)C(=O)[C@@H](N)CCCCNC(=O)CC[C@H](NC(=O)CCCCCCCCCCCCCCCCC(=O)O)C(=O)O)C(C)C)C(=O)N[C@@H](CCC(N)=O)C(=O)N[C@@H](CC(C)C)C(=O)N[C@@H](CCSC)C(=O)N[C@@H](Cc1c[nH]cn1)C(=O)N[C@@H](CC(N)=O)C(=O)N[C@@H](CC(C)C)C(=O)NCC(=O)N[C@@H](CCCCN)C(=O)N[C@@H](Cc1c[nH]cn1)C(=O)N[C@@H](CC(C)C)C(=O)N[C@@H](CC(N)=O)C(=O)N[C@@H](CO)C(=O)N[C@@H](CCSC)C(=O)N[C@@H](CCC(=O)O)C(=O)N[C@@H](CCCNC(=N)N)C(=O)N[C@H](C(=O)N[C@@H](CCC(=O)O)C(=O)N[C@@H](Cc1c[nH]c2ccccc12)C(=O)N[C@@H](CC(C)C)C(=O)N[C@@H](CCCNC(=N)N)C(=O)N[C@@H](CCCCN)C(=O)N[C@@H](CCCCN)C(=O)N[C@@H](CC(C)C)C(=O)N[C@@H](CCC(N)=O)C(=O)N[C@@H](CC(=O)O)C(=O)N[C@H](C(=O)N[C@@H](Cc1c[nH]cn1)C(=O)N[C@@H](CC(N)=O)C(=O)N[C@@H](Cc1ccccc1)C(=O)O)C(C)C)C(C)C [SEQ ID NO: 53] | 71 h | 1.8 faster than Sar | – |
| CC[C@H](C)[C@H](NC(=O)[C@H](CCC(=O)O)NC(=O)[C@H](CO)NC(=O)[C@@H](NC(=O)[C@@H](N)CO)C(C)C)C(=O)N[C@@H](CCC(N)=O)C(=O)N[C@@H](CC(C)C)C(=O)N[C@@H](CCSC)C(=O)N[C@@H](Cc1c[nH]cn1)C(=O)N[C@@H](CC(N)=O)C(=O)N[C@@H](CC(C)C)C(=O)NCC(=O)N[C@@H](CCCCN)C(=O)N[C@@H](Cc1c[nH]cn1)C(=O)N[C@@H](CC(C)C)C(=O)N[C@@H](CC(N)=O)C(=O)N[C@@H](CO)C(=O)N[C@@H](CCSC)C(=O)N[C@@H](CCC(=O)O)C(=O)N[C@@H](CCCNC(=N)N)C(=O)N[C@H](C(=O)N[C@@H](CCC(=O)O)C(=O)N[C@@H](Cc1c[nH]c2ccccc12)C(=O)N[C@@H](CC(C)C)C(=O)N[C@@H](CCCNC(=N)N)C(=O)N[C@@H](CCCCN)C(=O)N[C@@H](CCCCN)C(=O)N[C@@H](CC(C)C)C(=O)N[C@@H](CCC(N)=O)C(=O)N[C@@H](CC(=O)O)C(=O)N[C@H](C(=O)N[C@@H](Cc1c[nH]cn1)C(=O)N[C@@H](CC(N)=O)C(=O)N[C@@H](Cc1ccccc1)C(=O)N[C@@H](CCCCNC(=O)CC[C@H](NC(=O)CCCCCCCCCCCCCCCCC(=O)O)C(=O)O)C(N)=O)C(C)C)C(C)C [SEQ ID NO: 56] | – | – | potency at the PTH receptor (PTH1 receptor; FIGS. 3A, 3B, luciferase reporter of cAMP production): retains high potency; EC50 (PTH1 receptor; HEK293 cells, PTH1 receptor, cAMP-responsive luciferase, 5 hours, read-out: Potency EC50): 2.9 nM |

Second part, led by results:

| half-life [1] | Half life, fold faster than Sar (vs SEQ ID NO: 52) ([1]; comparator SEQ ID NO: 52) | SMILES | other results |
| --- | --- | --- | --- |
| 250 h | – | CC[C@H](C)[C@H](NC(=O)[C@H](CCC(=O)O)NC(=O)[C@H](CO)NC(=O)[C@@H](NC(=O)[C@H](CO)NC(=O)[C@@H]1CCCCN1C(=O)[C@@H](N)CCCCNC(=O)CC[C@H](NC(=O)CCCCCCCCCCCCCCCCC(=O)O)C(=O)O)C(C)C)C(=O)N[C@@H](CCC(N)=O)C(=O)N[C@@H](CC(C)C)C(=O)N[C@@H](CCSC)C(=O)N[C@@H](Cc1c[nH]cn1)C(=O)N[C@@H](CC(N)=O)C(=O)N[C@@H](CC(C)C)C(=O)NCC(=O)N[C@@H](CCCCN)C(=O)N[C@@H](Cc1c[nH]cn1)C(=O)N[C@@H](CC(C)C)C(=O)N[C@@H](CC(N)=O)C(=O)N[C@@H](CO)C(=O)N[C@@H](CCSC)C(=O)N[C@@H](CCC(=O)O)C(=O)N[C@@H](CCCNC(=N)N)C(=O)N[C@H](C(=O)N[C@@H](CCC(=O)O)C(=O)N[C@@H](Cc1c[nH]c2ccccc12)C(=O)N[C@@H](CC(C)C)C(=O)N[C@@H](CCCNC(=N)N)C(=O)N[C@@H](CCCCN)C(=O)N[C@@H](CCCCN)C(=O)N[C@@H](CC(C)C)C(=O)N[C@@H](CCC(N)=O)C(=O)N[C@@H](CC(=O)O)C(=O)N[C@H](C(=O)N[C@@H](Cc1c[nH]cn1)C(=O)N[C@@H](CC(N)=O)C(=O)N[C@@H](Cc1ccccc1)C(=O)O)C(C)C)C(C)C [SEQ ID NO: 54] | Half life, fold slower than Sar (vs SEQ ID NO: 52) ([1]; comparator SEQ ID NO: 52): 1.9 slower than Sar |
| 49 h | – | CC[C@H](C)[C@H](NC(=O)[C@H](CCC(=O)O)NC(=O)[C@H](CO)NC(=O)[C@@H](NC(=O)[C@H](CO)NC(=O)CN(C)C(=O)[C@H](N)CCCCN)C(C)C)C(=O)N[C@@H](CCC(N)=O)C(=O)N[C@@H](CC(C)C)C(=O)N[C@@H](CCSC)C(=O)N[C@@H](Cc1c[nH]cn1)C(=O)N[C@@H](CC(N)=O)C(=O)N[C@@H](CC(C)C)C(=O)NCC(=O)N[C@@H](CCCCN)C(=O)N[C@@H](Cc1c[nH]cn1)C(=O)N[C@@H](CC(C)C)C(=O)N[C@@H](CC(N)=O)C(=O)N[C@@H](CO)C(=O)N[C@@H](CCSC)C(=O)N[C@@H](CCC(=O)O)C(=O)N[C@@H](CCCNC(=N)N)C(=O)N[C@H](C(=O)N[C@@H](CCC(=O)O)C(=O)N[C@@H](Cc1c[nH]c2ccccc12)C(=O)N[C@@H](CC(C)C)C(=O)N[C@@H](CCCNC(=N)N)C(=O)N[C@@H](CCCCN)C(=O)N[C@@H](CCCCN)C(=O)N[C@@H](CC(C)C)C(=O)N[C@@H](CCC(N)=O)C(=O)N[C@@H](CC(=O)O)C(=O)N[C@H](C(=O)N[C@@H](Cc1c[nH]cn1)C(=O)N[C@@H](CC(N)=O)C(=O)N[C@@H](Cc1ccccc1)C(=O)N[C@@H](CCCCNC(=O)CC[C@H](NC(=O)CCCCCCCCCCCCCCCCC(=O)O)C(=O)O)C(N)=O)C(C)C)C(C)C [SEQ ID NO: 57] | Half life, fold faster (vs SEQ ID NO: 45) ([1]; comparator SEQ ID NO: 45): 1.8 faster without |
